Results published in publication PMC8071163, “Design and Synthesis of 2,6-Disubstituted-4′-Selenoadenosine-5′-N,N-Dimethyluronamide Derivatives as Human A3 Adenosine Receptor Antagonists” (Pharmaceuticals, 2021).

What was measured:
hA1AR = target: T1, hA1AR (Homo sapiens, UniProt P30542); experiment: Radioligand competition binding assay at hA1AR ([3H]DPCPX)
T1 construct: host or cells: CHO-A1 cells (membranes)
T1 sequence (P30542 1-326): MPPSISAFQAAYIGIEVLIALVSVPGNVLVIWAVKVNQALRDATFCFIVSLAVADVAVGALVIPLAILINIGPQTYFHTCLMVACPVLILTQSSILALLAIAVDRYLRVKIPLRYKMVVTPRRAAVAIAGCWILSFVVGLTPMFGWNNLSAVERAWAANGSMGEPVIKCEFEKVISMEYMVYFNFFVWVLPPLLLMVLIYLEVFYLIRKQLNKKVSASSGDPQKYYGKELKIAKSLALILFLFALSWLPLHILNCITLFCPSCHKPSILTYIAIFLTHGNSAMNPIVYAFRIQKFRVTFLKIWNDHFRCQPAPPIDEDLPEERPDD
Protocol: Adenosine A1 receptor competition binding experiments were carried out in membranes from CHO-A1 cells (Euroscreen, Gosselies, Belgium). On the day of assay, membranes were defrosted and re-suspended in incubation buffer 20 mM Hepes, 100 mM NaCl, 10 mM MgCl2, 2 UI/mL adenosine deaminase (pH = 7.4). Each reaction well of a GF/C multiscreen plate (Millipore, Madrid, Spain), prepared in duplicate, contained 15 μg of protein, 2 nM [^3H]DPCPX and test compound. Nonspecific binding was determined in the presence of 10 μM (R)-PIA. The reaction mixture was incubated at 25 °C for 60 min, after which samples were filtered and measured in a microplate beta scintillation counter (Microbeta Trilux, Perkin Elmer, Madrid, Spain).

hA2AAR = target: T2, hA2AAR (Homo sapiens, UniProt P29274); experiment: Radioligand competition binding assay at hA2AAR ([3H]ZM241385)
T2 construct: expressed in transfected cells; host or cells: HeLa-A2A cells (membranes)
Protocol: Adenosine A2A receptor competition binding experiments were carried out in membranes from HeLa-A2A cells. On the day of assay, membranes were defrosted and re-suspended in incubation buffer 50 mM Tris-HCl, 1 mM EDTA, 10 mM MgCl2 and 2 UI/mL adenosine deaminase (pH = 7.4). Each reaction well of a GF/C multiscreen plate (Millipore, Madrid, Spain), prepared in duplicate, contained 10 μg of protein, 3 nM [^3H]ZM241385 and test compound. Nonspecific binding was determined in the presence of 50 μM NECA. The reaction mixture was incubated at 25 °C for 30 min, after which samples were filtered and measured in a microplate beta scintillation counter (Microbeta Trilux, Perkin Elmer, Madrid, Spain).

hA2BAR = target: T3, hA2BAR (Homo sapiens, UniProt P29275); experiment: Radioligand competition binding assay at hA2BAR ([3H]DPCPX)
T3 construct: host or cells: HEK-293-A2B cells (membranes)
T3 sequence (P29275 1-332): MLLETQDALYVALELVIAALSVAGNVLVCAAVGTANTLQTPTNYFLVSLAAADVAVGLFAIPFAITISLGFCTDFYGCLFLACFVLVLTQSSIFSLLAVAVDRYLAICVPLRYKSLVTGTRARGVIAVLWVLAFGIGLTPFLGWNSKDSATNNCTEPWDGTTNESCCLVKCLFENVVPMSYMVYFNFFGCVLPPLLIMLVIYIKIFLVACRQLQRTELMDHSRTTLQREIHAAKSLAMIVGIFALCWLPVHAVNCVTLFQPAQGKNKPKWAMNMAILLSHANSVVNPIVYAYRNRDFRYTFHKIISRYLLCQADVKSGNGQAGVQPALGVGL
Protocol: Adenosine A2B receptor competition binding experiments were carried out in membranes from HEK-293-A2B cells (Euroscreen, Gosselies, Belgium) prepared following the provider’s protocol. On the day of assay, membranes were defrosted and re-suspended in incubation buffer 50 mM Tris-HCl, 1 mM EDTA, 10 mM MgCl2, 0.1 mM benzamidine, 10 μg/mL bacitracine and 2 UI/mL adenosine deaminase (pH = 6.5). Each reaction well prepared in duplicate contained 18 μg of protein, 35 nM [^3H]DPCPX and test compound. Nonspecific binding was determined in the presence of 400 μM NECA. The reaction mixture was incubated at 25 °C for 30 min, after which samples were filtered through a multiscreen GF/C microplate and measured in a microplate beta scintillation counter (Microbeta Trilux, Perkin Elmer, Madrid, Spain).

hA3AR [1] = target: T4, hA3AR (Homo sapiens, UniProt P0DMS8); experiment: Radioligand competition binding assay at hA3AR ([3H]NECA); parameters: expressed in transfected cells; host or cells: HeLa-A3 cell line (membranes prepared in laboratory); settings: 0.5 nM [3H]NECA; mean ± SEM (n = 2); read-out: Affinity, Ki, hA3AR
T4 sequence (P0DMS8 1-318): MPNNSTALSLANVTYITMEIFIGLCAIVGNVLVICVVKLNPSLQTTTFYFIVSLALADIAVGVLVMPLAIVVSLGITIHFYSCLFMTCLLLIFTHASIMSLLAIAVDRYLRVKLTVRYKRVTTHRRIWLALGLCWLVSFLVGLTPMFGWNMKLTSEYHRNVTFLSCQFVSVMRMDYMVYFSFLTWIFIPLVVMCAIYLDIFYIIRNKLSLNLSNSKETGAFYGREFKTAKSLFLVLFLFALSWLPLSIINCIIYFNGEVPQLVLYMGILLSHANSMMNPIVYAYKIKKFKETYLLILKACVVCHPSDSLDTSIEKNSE

hA3AR [2] = target: T4, hA3AR; experiment: Cyclic AMP accumulation functional assay at hA3AR expressed in CHO cells; type: cell-based; parameters: expressed in transfected cells
Protocol: Human adenosine A3 receptor functional experiments were carried out in CHO-A3#18 cell line. The day before the assay, the cells were seeded on the 96-well culture plate (Falcon 353072, Corning, Glendale, AZ, USA). The cells are washed with wash buffer (Dulbecco’s modified eagle’s medium nutrient mixture F-12 ham (Sigma D8062), 25 mM Hepes; pH = 7.4). Wash buffer is replaced by incubation buffer (Dulbecco’s modified eagle’s medium nutrient mixture F-12 ham (Sigma D8062), 25 mM Hepes, 30 μM Rolipram (Sigma R6520); pH = 7.4). Test compounds and MRS1220 as reference compound (Sigma M228) are added and the cells incubated at 37 °C for 15 min. After, 0.1 μM of 5′-N-ethylcarboxamido-adenosine (NECA) (Sigma E2387) is added and the cells incubated at 37 °C for 10 min. Forskolin (Sigma F3917, Sigma-Aldrich, St. Louis, MO, USA) is added and incubated at 37 °C for 5 min. After incubation, the amount of cAMP is determined using a cAMP Biotrak Enzymeimmunoassay (EIA) System Kit (GE Healthcare RPN225, GE Healthcare, Chicago, IL, USA).

T2 sequence (P29274 whole entry): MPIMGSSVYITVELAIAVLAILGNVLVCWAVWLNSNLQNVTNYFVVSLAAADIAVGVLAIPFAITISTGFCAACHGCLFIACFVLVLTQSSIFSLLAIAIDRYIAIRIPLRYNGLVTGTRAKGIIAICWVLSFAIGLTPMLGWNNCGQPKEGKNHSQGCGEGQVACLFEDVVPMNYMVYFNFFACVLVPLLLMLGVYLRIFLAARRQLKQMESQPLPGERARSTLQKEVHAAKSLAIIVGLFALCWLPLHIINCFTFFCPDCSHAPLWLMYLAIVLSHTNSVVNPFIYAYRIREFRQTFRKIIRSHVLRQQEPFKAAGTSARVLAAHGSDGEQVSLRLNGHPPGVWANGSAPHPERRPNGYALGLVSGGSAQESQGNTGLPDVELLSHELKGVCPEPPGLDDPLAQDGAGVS

Compound	inhibition at 10 µM (hA1AR)	inhibition at 10 µM (hA2AAR)	inhibition at 10 µM (hA2BAR)	Ki (hA3AR [1])	Behaviour in cAMP functional assay at hA3AR (hA3AR [2])	Kb (hA3AR [2]; inhibition of NECA-induced cAMP accumulation)
CN(C)C(=O)[C@H]1[Se][C@@H](n2cnc3c(N)ncnc32)[C@H](O)[C@@H]1O [Compound 9a, (2S,3S,4R,5R)-5-(6-amino-9H-purin-9-yl)-3,4-dihydroxy-N,N-dimethyltetra hydroselenophene-2-carboxamide]	16%	22%	17%	3710 ± 600 nM		
CNc1ncnc2c1ncn2[C@@H]1[Se][C@H](C(=O)N(C)C)[C@@H](O)[C@H]1O [Compound 9b, (2S,3S,4R,5R)-3,4-dihydroxy-N,N-dimethyl-5-(6-(methylamino)-9H-purin-9-yl)tetrahydroselenophene-2-carboxamide]	9%	3%	9%	609 ± 47 nM		
CN(C)C(=O)[C@H]1[Se][C@@H](n2cnc3c(NCc4cccc(F)c4)ncnc32)[C@H](O)[C@@H]1O [Compound 9c, (2S,3S,4R,5R)-5-(6-((3-fluorobenzyl)amino)-9H-purin-9-yl)-3,4-dihydroxy-N,N-dimethyltetrahydroselenophene-2-carboxamide]	13%	12%	19%	2020 ± 170 nM		
CN(C)C(=O)[C@H]1[Se][C@@H](n2cnc3c(NCc4cccc(Cl)c4)ncnc32)[C@H](O)[C@@H]1O [Compound 9d, (2S,3S,4R,5R)-5-(6-((3-chlorobenzyl)amino)-9H-purin-9-yl)-3,4-dihydroxy-N,N-dimethyltetrahydroselenophene-2-carboxamide]	23%	4%	15%	1190 ± 160 nM		
CN(C)C(=O)[C@H]1[Se][C@@H](n2cnc3c(NCc4cccc(Br)c4)ncnc32)[C@H](O)[C@@H]1O [Compound 9e, (2S,3S,4R,5R)-5-(6-((3-bromobenzyl)amino)-9H-purin-9-yl)-3,4-dihydroxy-N,N-dimethyltetrahydroselenophene-2-carboxamide]	43%	37%		36.3 ± 12.7 nM		
CN(C)C(=O)[C@H]1[Se][C@@H](n2cnc3c(NCc4cccc(I)c4)ncnc32)[C@H](O)[C@@H]1O [Compound 9f, (2S,3S,4R,5R)-3,4-dihydroxy-5-(6-((3-iodobenzyl)amino)-9H-purin-9-yl)-N,N-dimethyltetrahydroselenophene-2-carboxamide]	36%	32%		22.7 ± 8.9 nM		
CN(C)C(=O)[C@H]1[Se][C@@H](n2cnc3c(N)nc(Cl)nc32)[C@H](O)[C@@H]1O [Compound 9g, (2S,3S,4R,5R)-5-(2-chloro-6-amino-9H-purin-9-yl)-3,4-dihydroxy-N,N-dimethyltetrahydroselenophene-2-carboxamide]	9%	3%	25%	3250 ± 370 nM		
CNc1nc(Cl)nc2c1ncn2[C@@H]1[Se][C@H](C(=O)N(C)C)[C@@H](O)[C@H]1O [Compound 9h, (2S,3S,4R,5R)-5-(2-chloro-6-(methylamino)-9H-purin-9-yl)-3,4-dihydroxy-N,N-dimethyltetrahydroselenophene-2-carboxamide]	58%	5%	19%	1060 ± 140 nM		
CN(C)C(=O)[C@H]1[Se][C@@H](n2cnc3c(NCc4cccc(F)c4)nc(Cl)nc32)[C@H](O)[C@@H]1O [Compound 9i, (2S,3S,4R,5R)-5-(2-chloro-6-((3-fluorobenzyl)amino)-9H-purin-9-yl)-3,4-dihydroxy-N,N-dimethyltetrahydroselenophene-2-carboxamide]	34%	9%	14%	238 ± 37 nM		
CN(C)C(=O)[C@H]1[Se][C@@H](n2cnc3c(NCc4cccc(Cl)c4)nc(Cl)nc32)[C@H](O)[C@@H]1O [Compound 9j, (2S,3S,4R,5R)-5-(2-chloro-6-((3-chlorobenzyl)amino)-9H-purin-9-yl)-3,4-dihydroxy-N,N-dimethyltetrahydroselenophene-2-carboxamide]	63%	13%	27%	195 ± 40 nM		
CN(C)C(=O)[C@H]1[Se][C@@H](n2cnc3c(NCc4cccc(Br)c4)nc(Cl)nc32)[C@H](O)[C@@H]1O [Compound 9k, (2S,3S,4R,5R)-5-(6-((3-bromobenzyl)amino)-2-chloro-9H-purin-9-yl)-3,4-dihydroxy-N,N-dimethyltetrahydroselenophene-2-carboxamide]	58%	10%	27%	180 ± 12 nM		
CN(C)C(=O)[C@H]1[Se][C@@H](n2cnc3c(NCc4cccc(I)c4)nc(Cl)nc32)[C@H](O)[C@@H]1O [Compound 9l, (2S,3S,4R,5R)-5-(2-chloro-6-((3-iodobenzyl)amino)-9H-purin-9-yl)-3,4-dihydroxy-N,N-dimethyltetrahydroselenophene-2-carboxamide]	68%	10%	23%	253 ± 29 nM	antagonist activity	114 nM
